Consider 22 molecules from patent US20200087258A1, “INHIBITOR OF CITRATE TRANSPORTER AND THEIR USE IN THERAPY” (Eternygen GmbH, priority 2017, published 2020).

The target in test [1] is T1, INDY (Homo sapiens, UniProt Q86YT5). Description: 14C-citrate uptake in HepG2 cells endogenously expressing INDY (NaCT). In kind it is cell-based. Particulars: endogenous INDY. How it is done: (§1) The compound was obtained by screening of a library containing more than 50,000 lead-like compounds and fragments. The library was tested using a functional citrate uptake assay with HEK293 cells overexpressing recombinant human INDY. The following hit confirmation was conducted in the same assay system. To confirm the activity of selected compounds on the target INDY another cell assay was conducted. In this assay system citrate uptake was measured using HepG2 cells which endogenously express INDY. Furthermore selectivity of selected compounds was tested for two other transporters in different assay systems. The first transporter was the glutamate transporter GLT-1 tested in a glutamate uptake assays using HEK293 cells overexpressing recombinant human GLT-1. The second transporter was the glucose transporter GLUT1 tested in a glucose uptake assay using Huh-7 cells which endogenously express GLUT1. Compounds were considered to be selective with an at least 5-fold higher activity for INDY than for the other two transporters.
(§2) Cells were maintained in cell medium using cell culture grade flasks (CellSTACK Corning, 500 cm2 dishes or T175 depending on cell number). The selection antibiotic and G418 (800 μg/ml) was added during cultivation but not for seeding into assay plates. For splitting, cells were washed with PBS (w/o Ca2+, Mg2+, phenol red) and detached with Trypsin/EDTA. Throughout cultivation cells were kept sub-confluent. Detached cells (50,000 cells/well) were seeded in 96-well plates (white, clear bottom from Corning #655098) and incubated over night before usage in the assay. The following media were used. For HEK293 cells expressing INDY MEM (PAA)+10% FCS+1×P/S+2 mM L-Gln; for HEK293 cells expressing GLT-1 DMEM (Gibco)+10% FCS+400 µg/ml G418; for Huh7 cells DMEM (Gibco)+10% FCS+2 mM L-Gin (+1×P/S); for HepG2 cells MEM (PAA, Cat # E15-024)+10% FCS+2 mM L-Gin+1×NEAA+1 mM Na-Pyruvat
(§3) The following assay buffers for the particular uptake reaction were used. Citrate uptake buffer: 120 mM NaCl, 5.4 mM KCl, 0.8 mM MgSO4, 5 mM glucose, 1.8 mM CaCl2, 25 mM Hepes, 25 mM MES, pH 6.5. Glutamate uptake buffer: HBSS, 1 mM CaCl2, 1 mM MgCl2, 20 mM Hepes pH 7.4. Glucose uptake buffer: 25 mM Hepes+25 mM MES pH 7.4, 120 mM NaCl, 5.4 mM KCl, 1.8 mM CaCl2, 0.8 mM MgSO4.
INDY mediated citrate uptake was also determined in HepG2 cells. To determine the uptake of ^14C labelled citrate into cells, HepG2 cells endogenously expressing human NaCT were used. (Gopal et al. 2007 Am J Physiol Gastrointest Liver Physiol 292).
HepG2 cells were seeded into white clear-bottom 96-well plates (50,000/well) coated with collagen and incubated at 37° C. for 16-24 hours. After that plates were washed once with assay buffer using automated washing/LS 405 Selectors, BioTek ending with a buffer volume of 40 μl. Then 5 μl of compound solution in assay buffer was added and incubated for 5 min at 37° C. in cell incubator, HERA cell Heraeus. Afterwards 10 μl of substrate 14C-citrate (10 nM) were added and incubated for another 90 min at 37° C. in cell incubator, HERAcell. Then plates were washed 3× with 200 μl buffer and […] cell lysis induced by adding 50 μl ice-cold NaOH (100 mM). Plates were incubated for 25 min at RT on a plate shaker and afterwards 200 μl scintillation fluid was added and incubated for 15 min on a plate shaker at RT and for another 15 min without shaking at RT. Plates were measured using a TopCount system. As a positive control 5 mM citrate was applied. It is possible to use this assay also in analogy in a 384-well plate format.

The target in test [2] is T1, INDY. Kind of test: 14C-citrate uptake in HEK293 cells overexpressing recombinant human INDY (NaCT). It is filed as cell-based. Also on record: expressed in transfected cells; host or cells: HEK293. As to the method:
as §1, §2, §3
INDY mediated citrate uptake was determined in HEK293 cells. To determine the uptake of ^14C labelled citrate into cells, HEK293 cells over-expressing human NaCT were used. Cloning of human NaCT was done in analogy as described in Birkenfeld et al. (Birkenfeld et al., 2011, Cell Metabolism 14, 184-195, 2011).
Human NaCT HEK293 cells were seeded into white clear-bottom 96-well plates (50,000/well) in the presence of 4 μg/ml Poly-D-Lysine and incubated at 37° C. for 16-24 hours. On the days of the assay the plates were washed once with assay buffer using automated washing/LS 405 Selectors, BioTek ending with a buffer volume of 40 μl. Then 5 μl of compound solution in assay buffer was added and incubated for 5-30 min at 37° C. in cell incubator, HERA cell Heraeus. Afterwards 10 μl of substrate 14C-citrate ([…]/[…] per well) were added and incubated for another 20-90 min at 37° C. in cell incubator, HERAcell. Then plates were washed twice with 200 μl ice-cold assay buffer and residual volume was discarded. For cell lysis 50 μl ice-cold NaOH (100 mM) was added and incubated for 15 minutes at RT on a plate shaker. Finally, 200 μl scintillation fluid (scintillator OptiPhase Supermix, Perkin Elmer) was added. After 15 min incubation at RT without shaking, plates were measured using a TopCount reader system (Perkin Elmer). As a positive control 10 mM citrate was applied. It is possible to use this assay also in analogy in a 384-well plate format.

T1 sequence (Q86YT5 whole entry, the tested form may be a part): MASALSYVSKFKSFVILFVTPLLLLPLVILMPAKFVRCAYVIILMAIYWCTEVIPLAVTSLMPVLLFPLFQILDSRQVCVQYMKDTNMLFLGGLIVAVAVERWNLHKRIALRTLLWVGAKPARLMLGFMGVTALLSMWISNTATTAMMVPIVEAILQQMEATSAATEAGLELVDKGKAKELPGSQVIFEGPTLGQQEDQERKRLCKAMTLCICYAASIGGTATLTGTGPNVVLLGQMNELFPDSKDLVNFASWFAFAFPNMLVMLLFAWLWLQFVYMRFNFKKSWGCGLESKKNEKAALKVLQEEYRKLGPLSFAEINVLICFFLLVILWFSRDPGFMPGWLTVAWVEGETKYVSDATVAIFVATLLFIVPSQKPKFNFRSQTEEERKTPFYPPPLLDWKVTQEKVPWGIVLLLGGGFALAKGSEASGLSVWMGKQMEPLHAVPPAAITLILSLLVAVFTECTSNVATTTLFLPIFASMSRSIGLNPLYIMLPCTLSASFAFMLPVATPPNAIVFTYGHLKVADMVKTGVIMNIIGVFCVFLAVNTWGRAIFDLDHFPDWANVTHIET

As for `O=C(NCc1ccccc1F)N1CCN(S(=O)(=O)/C=C/c2ccccc2)CC1` [Example 7, N-[(2-fluorophenyl)methyl]-4-[(E)-2-phenylethenesulfonyl]piperazine-1-carboxamide], the IC50 in test [1] is over 50 µM.
The same measure, in the same setting: the result for `CN(Cc1ccccc1F)C(=O)C1CCN(S(=O)(=O)/C=C/c2ccccc2)CC1` [Example 8, N-[(2-fluorophenyl)methyl]-N-methyl-1-[(E)-2-phenylethenesulfonyl]piperidine-4-carboxamide] reads over 50 µM; that for `O=C(NCc1ccccc1F)C1CCN(S(=O)(=O)C2=Cc3ccccc3OC2)CC1` [Example 9, 1-(2H-chromene-3-sulfonyl)-N-[(2-fluorophenyl)methyl]piperidine-4-carboxamide], over 50 µM.
For `O=S(=O)(/C=C/c1ccccc1)N1CCC(CNCc2ccccc2F)CC1` [Example 10, [(2-fluorophenyl)methyl]({1-[(E)-phenylethenesulfonyl]piperidin-4-yl}methyl)amine], the concentration for half-maximal inhibition (IC50) in test [1] was over 50 µM.
On to `COc1ccccc1CNC(=O)C1CCN(S(=O)(=O)/C=C/c2ccccc2)CC1` [Example 15, N-[(2-methoxyphenyl)methyl]-1-[(E)-2-phenylethenesulfonyl]piperidine-4-carboxamide], for which the IC50 in test [1] was determined as 2.7 µM; in test [2], 2.9 µM.
The matching figures for `COc1cccc(S(=O)(=O)N2CCC(C(=O)NCc3ccccc3F)CC2)c1` [Example 16, N-[(2-fluorophenyl)methyl]-1-(3-methoxybenzenesulfonyl)piperidine-4-carboxamide]: 1.5 µM and 1.4 µM.
`COc1ccccc1S(=O)(=O)N1CCC(C(=O)NCc2ccccc2F)CC1` [Example 19, N-[(2-fluorophenyl)methyl]-1-(2-methoxybenzenesulfonyl)piperidine-4-carboxamide]: the 50% inhibitory concentration (IC50) in test [1] worked out at 3.4 µM; in test [2] it was 5 µM.
For `O=C(NCc1cccc(F)c1)C1CCN(S(=O)(=O)/C=C/c2ccccc2)CC1` [Example 21, N-[(3-fluorophenyl)methyl]-1-[(E)-2-phenylethenesulfonyl]piperidine-4-carboxamide], the half-inhibitory concentration (IC50) in test [1] is over 20 µM; in test [2], 7.4 µM.
For `O=C(NCc1cccc(F)c1F)C1CCN(S(=O)(=O)/C=C/c2ccccc2)CC1` [Example 22, N-[(2,3-difluorophenyl)methyl]-1-[(E)-2-phenylethenesulfonyl]piperidine-4-carboxamide], the results for the half-maximal inhibitory concentration (IC50) in test [1] and in test [2] were 7 µM and 3.4 µM, respectively.
Consider `O=C(NCc1cc(F)ccc1F)C1CCN(S(=O)(=O)/C=C/c2ccccc2)CC1` [Example 23, N-[(2,5-difluorophenyl)methyl]-1-[(E)-2-phenylethenesulfonyl]piperidine-4-carboxamide], for which the figures for the IC50 in test [1] and in test [2] were over 20 µM and 4.6 µM, respectively.
With `CC(C)Oc1ccc(S(=O)(=O)N2CCC(C(=O)NCc3ccccc3F)CC2)cc1` [Example 24, N-[(2-fluorophenyl)methyl]-1-[4-(propan-2-yloxy)benzenesulfonyl]piperidine-4-carboxamide], the IC50 came to 4.2 µM in test [1] and 9.3 µM in test [2].
Regarding `O=C(NCc1ccccc1F)C1CCN(S(=O)(=O)c2ccc3c(c2)OCO3)CC1` [Example 26, 1-(2H-1,3-benzodioxole-5-sulfonyl)-N-[(2-fluorophenyl)methyl]piperidine-4-carboxamide], the IC50 in test [1] was 15.9 µM; in test [2], 5.2 µM.
As to `O=C(NCc1ccccc1F)C1CCN(S(=O)(=O)c2ccc(Cl)cc2)CC1` [Example 27, 1-(4-chlorobenzenesulfonyl)-N-[(2-fluorophenyl)methyl]piperidine-4-carboxamide], the 50% inhibitory concentration (IC50) amounted to 2.4 µM in test [1] and 3 µM in test [2].
Consider `O=C(NCc1ccccc1F)C1CCN(S(=O)(=O)c2ccc(Cl)c(Cl)c2)CC1` [Example 28, 1-(3,4-dichlorobenzenesulfonyl)-N-[(2-fluorophenyl)methyl]piperidine-4-carboxamide], for which the IC50 was 15.7 µM in test [1] and over 20 µM in test [2].
In the case of `O=C(NCc1ccccc1F)C1CCN(S(=O)(=O)c2ccc(-c3ccccc3)cc2)CC1` [Example 30, 1-{[1,1′-biphenyl]-4-sulfonyl}-N-[(2-fluorophenyl)methyl]piperidine-4-carboxamide], the IC50 in test [1] and in test [2] was 0.8 µM throughout.
For the molecule `O=C(NCc1ccccc1Br)C1CCN(S(=O)(=O)/C=C/c2ccccc2)CC1` [Example 32, N-[(2-bromophenyl)methyl]-1-[(E)-2-phenylethenesulfonyl]piperidine-4-carboxamide], the half-inhibitory concentration (IC50) in test [1] amounted to 6.7 µM; in test [2] it was 5.1 µM.
Take `CC(C)(C)c1cccc(S(=O)(=O)N2CCC(C(=O)NCc3ccccc3F)CC2)c1` [Example 33, 1-(3-tert-butylbenzenesulfonyl)-N-[(2-fluorophenyl)methyl]piperidine-4-carboxamide]: the IC50 was 1 µM in test [1] and 0.5 µM in test [2].
Turning to `CCc1ccc(S(=O)(=O)N2CCC(C(=O)NCc3ccccc3F)CC2)cc1` [Example 34, 1-(4-ethylbenzenesulfonyl)-N-[(2-fluorophenyl)methyl]piperidine-4-carboxamide], the IC50 stood at 4.5 µM in test [1] and 1 µM in test [2].
Regarding `Cc1ccc(S(=O)(=O)N2CCC(C(=O)NCc3ccccc3F)CC2)cc1` [Example 35, N-[(2-fluorophenyl)methyl]-1-(4-methylbenzenesulfonyl)piperidine-4-carboxamide], the IC50 stood at 2.9 µM in test [1] and 1.5 µM in test [2].
For the molecule `O=C(NCc1ccccc1F)C1CCN(S(=O)(=O)c2ccc(I)cc2)CC1` [Example 36, N-[(2-fluorophenyl)methyl]-1-(4-iodobenzenesulfonyl)piperidine-4-carboxamide], the IC50 in test [1] and in test [2] was 1 µM throughout.
Take `COc1ccccc1CNC(=O)C1CCN(S(=O)(=O)c2ccc(C(C)(C)C)cc2)CC1` [Example 38, 1-(4-tert-butylbenzenesulfonyl)-N-[(2-methoxyphenyl)methyl]piperidine-4-carboxamide]: the IC50 in test [1] came out at 0.8 µM; in test [2] it was 0.3 µM.
Take `CC(C)(C)c1ccc(S(=O)(=O)N2CCC(C(=O)NCc3ccccc3Cl)CC2)cc1` [Example 39, 1-(4-tert-butylbenzenesulfonyl)-N-[(2-chlorophenyl)methyl]piperidine-4-carboxamide]: the half-inhibitory concentration (IC50) in test [1] amounted to 2.1 µM; in test [2] it was 0.2 µM.

What is called IC50 is the concentration that gives 50% inhibition.
